Reference: patent US11524966B1 (Valo Early Discovery, Inc., priority 2017, dated 2022)

The molecules below were run against T1, USP28 (USP28-5(1-1077)-TEV-6*His; LifeSensors) (Homo sapiens, UniProt Q96RU2) (assay: Ubiquitin-Rhodamine 110 Assay for USP28 Activity, Example A-1(b)). Details: Ubiquitin-Rhodamine 110 assay, Example A-1(b).
T1 construct: construct USP28 (USP28-5(1-1077)-TEV-6*His; LifeSensors); TEV cleavage site (C); 6xHis (C); purchased LifeSensors
T1 sequence (Q96RU2 1-1077): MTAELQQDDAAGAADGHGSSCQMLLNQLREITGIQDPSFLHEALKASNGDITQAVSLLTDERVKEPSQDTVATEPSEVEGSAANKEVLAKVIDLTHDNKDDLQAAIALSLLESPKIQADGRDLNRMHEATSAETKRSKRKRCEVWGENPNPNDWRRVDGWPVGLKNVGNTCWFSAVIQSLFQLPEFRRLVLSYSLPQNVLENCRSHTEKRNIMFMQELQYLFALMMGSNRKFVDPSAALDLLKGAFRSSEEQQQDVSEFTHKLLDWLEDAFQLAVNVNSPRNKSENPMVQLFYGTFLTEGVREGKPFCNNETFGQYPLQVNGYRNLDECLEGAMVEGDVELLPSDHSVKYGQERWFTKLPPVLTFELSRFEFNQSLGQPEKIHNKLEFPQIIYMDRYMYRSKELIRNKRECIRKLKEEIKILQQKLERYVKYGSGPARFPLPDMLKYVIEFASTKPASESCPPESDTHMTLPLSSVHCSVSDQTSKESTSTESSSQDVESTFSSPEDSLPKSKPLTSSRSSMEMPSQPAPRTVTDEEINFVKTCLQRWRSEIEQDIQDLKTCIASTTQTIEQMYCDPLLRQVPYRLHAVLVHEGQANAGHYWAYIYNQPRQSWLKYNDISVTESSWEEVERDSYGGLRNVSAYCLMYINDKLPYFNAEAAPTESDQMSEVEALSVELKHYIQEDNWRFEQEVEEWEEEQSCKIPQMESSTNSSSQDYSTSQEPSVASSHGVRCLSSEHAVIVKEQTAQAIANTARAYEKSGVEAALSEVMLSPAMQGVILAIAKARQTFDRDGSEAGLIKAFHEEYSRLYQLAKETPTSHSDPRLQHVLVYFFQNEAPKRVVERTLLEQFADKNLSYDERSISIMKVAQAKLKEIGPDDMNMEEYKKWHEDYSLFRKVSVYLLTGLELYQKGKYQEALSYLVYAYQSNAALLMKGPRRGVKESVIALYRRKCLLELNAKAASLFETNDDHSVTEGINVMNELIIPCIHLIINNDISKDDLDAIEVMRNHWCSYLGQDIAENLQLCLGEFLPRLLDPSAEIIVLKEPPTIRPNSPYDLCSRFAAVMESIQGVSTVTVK
Type: biochemical
Summary of the method: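 Single-point screening used 10 μM compound with 90 min room-temperature incubation; follow-up dose-responses (25 μM top, 3-fold) used 75 pM USP28 1-1077 construct, 30 min compound preincubation, 25 nM Ub-Rh110, 20 min reaction, citric acid quench. Rh110 fluorescence normalised to no-enzyme and DMSO controls; IC50 from 4-parameter logistic fit.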

Row | Compound | USP28 A-1(b) IC50 range
1 | Cc1ccc2c(N)c(C(=O)N[C@H]3COc4cc(N5C[C@H](N)[C@@H](F)C5)ccc4C3)sc2n1 [Example 3-7, 3-amino-N-((R)-7-((3S,4S)-3-amino-4-fluoropyrrolidin-1-yl)chroman-3-yl)-6-methylthieno[2,3-b]pyridine-2-carboxamide] | ++ (0.2-2 μM)
2 | Cc1ccc2c(N)c(C(=O)N[C@H]3COc4cc(N5C[C@@H](N)[C@H](F)C5)ccc4C3)sc2n1 [Example 3-8, 3-amino-N-((R)-7-((3R,4R)-3-amino-4-fluoropyrrolidin-1-yl)chroman-3-yl)-6-methylthieno[2,3-b]pyridine-2-carboxamide] | ++ (0.2-2 μM)
3 | Cc1ccc2c(N)c(C(=O)N[C@H]3COc4cc(N5CCN[C@@H](C(F)(F)F)C5)ccc4C3)sc2n1 [Example 3-11, 3-amino-6-methyl-N-((R)-7-((R)-3-(trifluoromethyl)piperazin-1-yl)chroman-3-yl)thieno[2,3-b]pyridine-2-carboxamide] | ++ (0.2-2 μM)
4 | Cc1ccc2c(N)c(C(=O)N[C@H]3COc4cc(N5CCN[C@H](C(F)(F)F)C5)ccc4C3)sc2n1 [Example 3-12, 3-amino-6-methyl-N-((R)-7-((S)-3-(trifluoromethyl)piperazin-1-yl)chroman-3-yl)thieno[2,3-b]pyridine-2-carboxamide] | ++ (0.2-2 μM)
5 | Cc1ccc2c(N)c(C(=O)N[C@H]3COc4cc(N5CC[C@]6(CCCNC6)C5)ccc4C3)sc2n1 [Example 3-13, N-((R)-7-((S)-2,7-diazaspiro[4.5]decan-2-yl)chroman-3-yl)-3-amino-6-methylthieno[2,3-b]pyridine-2-carboxamide] | +++ (0.05-0.2 μM)
6 | Cc1ccc2c(N)c(C(=O)N[C@H]3COc4cc(N5CC[C@@]6(CCCNC6)C5)ccc4C3)sc2n1 [Example 3-14, N-((R)-7-((R)-2,7-diazaspiro[4.5]decan-2-yl)chroman-3-yl)-3-amino-6-methylthieno[2,3-b]pyridine-2-carboxamide] | +++ (0.05-0.2 μM)
7 | Cc1ccc2c(N)c(C(=O)N[C@H]3COc4cc(N5CCC(F)(F)CC5)ccc4C3)sc2n1 [Example 5-1, (R)-3-amino-N-(7-(4,4-difluoropiperidin-1-yl)chroman-3-yl)-6-methylthieno[2,3-b]pyridine-2-carboxamide] | ++++ (0.001-0.05 μM)
8 | Cc1ccc2c(N)c(C(=O)N[C@H]3COc4cc(N5CCS(=O)(=O)CC5)ccc4C3)sc2n1 [Example 5-2, (R)-3-amino-N-(7-(1,1-dioxidothiomorpholino)chroman-3-yl)-6-methylthieno[2,3-b]pyridine-2-carboxamide] | +++ (0.05-0.2 μM)
9 | Cc1ccc2c(N)c(C(=O)N[C@H]3COc4cc(N5CC(O)(C(F)(F)F)C5)ccc4C3)sc2n1 [Example 5-3, (R)-3-amino-N-(7-(3-hydroxy-3-(trifluoromethyl)azetidin-1-yl)chroman-3-yl)-6-methylthieno[2,3-b]pyridine-2-carboxamide] | +++ (0.05-0.2 μM)
10 | Cc1ccc2c(N)c(C(=O)N[C@H]3COc4cc(N5CC6COCC(C5)C6(F)F)ccc4C3)sc2n1 [Example 5-4, 3-amino-N-((3R)-7-(9,9-difluoro-3-oxa-7-azabicyclo[3.3.1]nonan-7-yl)chroman-3-yl)-6-methylthieno[2,3-b]pyridine-2-carboxamide] | +++ (0.05-0.2 μM)
11 | Cc1ccc2c(N)c(C(=O)N[C@H]3COc4cc(N5CCC(C(=O)O)CC5)ccc4C3)sc2n1 [Example 6-1, (R)-1-(3-(3-Amino-6-methylthieno[2,3-b]pyridine-2-carboxamido)chroman-7-yl)piperidine-4-carboxylic Acid] | ++ (0.2-2 μM)
12 | Cc1ccc2c(N)c(C(=O)N[C@H]3COc4cc(N5CC[C@@H](C(=O)O)C5)ccc4C3)sc2n1 [Example 6-2, (R)-1-((R)-3-(3-amino-6-methylthieno[2,3-b]pyridine-2-carboxamido)chroman-7-yl)pyrrolidine-3-carboxylic acid] | ++ (0.2-2 μM)
13 | Cc1ccc2c(N)c(C(=O)N[C@H]3COc4cc(N5CC[C@H](C(=O)O)C5)ccc4C3)sc2n1 [Example 6-3, (S)-1-((R)-3-(3-amino-6-methylthieno[2,3-b]pyridine-2-carboxamido)chroman-7-yl)pyrrolidine-3-carboxylic acid] | ++ (0.2-2 μM)
14 | Cc1cnc2c(N)c(C(=O)N[C@H]3CCc4cc(N5CC(C(=O)O)C5)ccc4C3)sc2n1 [Example 6-4, (S)-1-(6-(7-amino-3-methylthieno[2,3-b]pyrazine-6-carboxamido)-5,6,7,8-tetrahydronaphthalen-2-yl)azetidine-3-carboxylic acid] | + (>2 μM)
15 | Cc1ccc2c(N)c(C(=O)N[C@H]3COc4cc(N5CCC(O)CC5)ccc4C3)sc2n1 [Example 7-1, (R)-3-amino-N-(7-(4-hydroxypiperidin-1-yl)chroman-3-yl)-6-methylthieno[2,3-b]pyridine-2-carboxamide] | +++ (0.05-0.2 μM)
16 | COC[C@@H]1CN(c2ccc3c(n2)OC[C@H](NC(=O)c2sc4nc(C)cc(C)c4c2N)C3)C[C@@H]1N [Example 348, 3-amino-N-[(3R)-7-[(3R,4R)-3-amino-4-(methoxymethyl)pyrrolidin-1-yl]-2H,3H,4H-pyrano[2,3-b]pyridin-3-yl]-4,6-dimethylthieno[2,3-b]pyridine-2-carboxamide] | + (>2 μM)
17 | Cc1ccc2c(N)c(C(=O)N[C@H]3CCc4nc(N5C[C@@H](N)[C@H](C(F)(F)F)C5)ccc4C3)sc2n1 [Example 364, 3-amino-N-[(6S)-2-[(3S,4R)-3-amino-4-(trifluoromethyl)pyrrolidin-1-yl]-5,6,7,8-tetrahydroquinolin-6-yl]-6-methylthieno[2,3-b]pyridine-2-carboxamide] | + (>2 μM)
18 | Cc1cnc2c(N)c(C(=O)N[C@H]3CCc4cc(N5CC6CNCC(C5)O6)ccc4C3)sc2n1 [Example 448, N-((2S)-6-(9-oxa-3,7-diazabicyclo[3.3.1]nonan-3-yl)-1,2,3,4-tetrahydronaphthalen-2-yl)-7-amino-3-methylthieno[2,3-b]pyrazine-6-carboxamide] | ++ (0.2-2 μM)
19 | Cc1cnc2c(N)c(C(=O)N[C@@H]3CCc4cc(N5CC6CNCC(C5)O6)ccc4C3)sc2n1 [Example 450, N-((2R)-6-(9-oxa-3,7-diazabicyclo[3.3.1]nonan-3-yl)-1,2,3,4-tetrahydronaphthalen-2-yl)-7-amino-3-methylthieno[2,3-b]pyrazine-6-carboxamide] | + (>2 μM)
20 | Cc1ccc2c(N)c(C(=O)N[C@@H]3CCc4cc(N5CC6CNCC(C5)O6)ccc4C3)sc2n1 [Example 451, N-((2R)-6-(9-oxa-3,7-diazabicyclo[3.3.1]nonan-3-yl)-1,2,3,4-tetrahydronaphthalen-2-yl)-3-amino-6-methylthieno[2,3-b]pyridine-2-carboxamide] | ++ (0.2-2 μM)
21 | Cc1cnc2c(N)c(C(=O)N[C@@H]3CCc4cc(N5CCCNCC5)ccc4C3)sc2n1 [Example 452, (R)-N-(6-(1,4-diazepan-1-yl)-1,2,3,4-tetrahydronaphthalen-2-yl)-7-amino-3-methylthieno[2,3-b]pyrazine-6-carboxamide] | + (>2 μM)
22 | Cc1cnc2c(N)c(C(=O)N[C@H]3CCc4cc(N5CCCNCC5)ccc4C3)sc2n1 [Example 455, (S)-N-(6-(1,4-diazepan-1-yl)-1,2,3,4-tetrahydronaphthalen-2-yl)-7-amino-3-methylthieno[2,3-b]pyrazine-6-carboxamide] | ++ (0.2-2 μM)
23 | Cc1cnc2c(N)c(C(=O)N[C@H]3CCc4cc(N5CC6COCC(C5)N6)ccc4C3)sc2n1 [Example 456, N-((2S)-6-(3-oxa-7,9-diazabicyclo[3.3.1]nonan-7-yl)-1,2,3,4-tetrahydronaphthalen-2-yl)-7-amino-3-methylthieno[2,3-b]pyrazine-6-carboxamide] | ++ (0.2-2 μM)
24 | CC(=O)N1CCCc2cc(C(=O)N[C@H]3COc4cc(N5CCNCC5)ccc4C3)ccc21 [Example 459, (R)-1-acetyl-N-(7-(piperazin-1-yl)chroman-3-yl)-1,2,3,4-tetrahydroquinoline-6-carboxamide] | + (>2 μM)
